The values that follow come from ChEMBL document CHEMBL3091452, “A prodrug approach toward cancer-related carbonic anhydrase inhibition” (J Med Chem, 2013).

Targets include Carbonic anhydrase 12 (Homo sapiens, UniProt O43570); Carbonic anhydrase 9 (Homo sapiens, UniProt Q16790); Carbonic anhydrase 2 (Homo sapiens, UniProt P00918); Carbonic anhydrase 1 (Homo sapiens, UniProt P00915).
A further data set addresses Carbonic anhydrase 14 (Homo sapiens, UniProt Q9ULX7). Nature of the data set: Inhibition of human carbonic anhydrase 14 by stopped-flow CO2 hydration assay.
Data set [1] in a line: Intrinsic clearance in human liver microsomes at 1 uM after 2 to 60 mins by LCMS analysis in absence of NADPH. It is filed as ADME. The settings on record: read-out: CLH.
The nature of data set [2]: Intrinsic clearance in human liver microsomes at 1 uM after 2 to 60 mins by LCMS analysis in presence of NADPH. It is filed as ADME. As to conditions: read-out: CLH.
Data set [3] can be described thus: Degradation half life in human plasma at 5000 ng/mL by UPLC-MS analysis. It is filed as ADME, cell-free.
The target in the next data set is Albumin (Homo sapiens, UniProt P02768). Nature of the data set: Binding affinity to human serum albumin by chromatographic analysis. It is filed as ADME. As to conditions: isolated protein.
Sequence of Albumin (P02768 whole entry, the tested form may be a part): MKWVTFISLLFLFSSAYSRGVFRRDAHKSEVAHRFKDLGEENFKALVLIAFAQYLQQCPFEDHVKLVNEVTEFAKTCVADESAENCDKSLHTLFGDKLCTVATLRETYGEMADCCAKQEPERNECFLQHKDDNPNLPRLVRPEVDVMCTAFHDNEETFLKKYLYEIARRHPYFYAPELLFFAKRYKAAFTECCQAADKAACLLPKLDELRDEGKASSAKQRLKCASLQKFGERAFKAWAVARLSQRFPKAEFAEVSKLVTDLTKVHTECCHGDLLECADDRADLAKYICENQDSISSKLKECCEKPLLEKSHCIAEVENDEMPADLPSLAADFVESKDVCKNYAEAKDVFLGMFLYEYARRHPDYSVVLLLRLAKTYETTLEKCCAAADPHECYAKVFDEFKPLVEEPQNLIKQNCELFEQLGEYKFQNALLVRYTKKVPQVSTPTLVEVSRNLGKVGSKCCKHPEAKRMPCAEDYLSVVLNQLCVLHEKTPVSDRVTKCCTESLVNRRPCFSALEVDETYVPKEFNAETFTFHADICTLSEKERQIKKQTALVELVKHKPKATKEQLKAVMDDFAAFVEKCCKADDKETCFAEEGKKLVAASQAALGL
The nature of data set [4]: Permeability of the compound in human Caco2 cells assessed as mass balance in diffusion chamber at 20 uM after 90 mins. It is filed as ADME, cell-based. As to conditions: Caco-2, read-out: permeability.
Data set [5] in a line: Solubility of the compound in HEPES buffer at pH 7.4. It is filed as physicochemical.
The nature of data set [6]: Permeability of the compound in human Caco2 cells assessed as mass balance in diffusion chamber at 15 uM after 90 mins. It is filed as ADME, cell-based. The settings on record: Caco-2, read-out: permeability.
The nature of data set [7]: Permeability of the compound in human Caco2 cells assessed as mass balance in diffusion chamber at 8 uM after 90 mins. The settings on record: Caco-2, read-out: permeability. It is filed as ADME, cell-based.

SMILES strings stand for the structures. Some results are limits rather than exact numbers.

Sequence of Carbonic anhydrase 12 (O43570 whole entry): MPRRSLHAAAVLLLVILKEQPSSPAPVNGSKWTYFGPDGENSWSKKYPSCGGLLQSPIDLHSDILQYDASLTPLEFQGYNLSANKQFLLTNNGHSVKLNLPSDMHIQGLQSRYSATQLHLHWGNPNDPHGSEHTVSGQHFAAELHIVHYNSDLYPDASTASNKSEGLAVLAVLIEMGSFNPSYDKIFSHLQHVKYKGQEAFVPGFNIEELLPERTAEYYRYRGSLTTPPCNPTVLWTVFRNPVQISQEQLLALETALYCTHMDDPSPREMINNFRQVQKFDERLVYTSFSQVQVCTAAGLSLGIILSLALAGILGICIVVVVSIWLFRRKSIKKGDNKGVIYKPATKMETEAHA
Sequence of Carbonic anhydrase 1 (P00915 whole entry): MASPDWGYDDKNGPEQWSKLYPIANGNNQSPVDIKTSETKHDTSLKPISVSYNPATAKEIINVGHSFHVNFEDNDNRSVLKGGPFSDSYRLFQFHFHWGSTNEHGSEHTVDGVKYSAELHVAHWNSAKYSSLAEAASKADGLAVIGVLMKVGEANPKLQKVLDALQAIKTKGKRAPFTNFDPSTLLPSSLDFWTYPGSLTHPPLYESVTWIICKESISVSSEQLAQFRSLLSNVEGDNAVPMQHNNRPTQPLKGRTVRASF
Sequence of Carbonic anhydrase 14 (Q9ULX7 whole entry): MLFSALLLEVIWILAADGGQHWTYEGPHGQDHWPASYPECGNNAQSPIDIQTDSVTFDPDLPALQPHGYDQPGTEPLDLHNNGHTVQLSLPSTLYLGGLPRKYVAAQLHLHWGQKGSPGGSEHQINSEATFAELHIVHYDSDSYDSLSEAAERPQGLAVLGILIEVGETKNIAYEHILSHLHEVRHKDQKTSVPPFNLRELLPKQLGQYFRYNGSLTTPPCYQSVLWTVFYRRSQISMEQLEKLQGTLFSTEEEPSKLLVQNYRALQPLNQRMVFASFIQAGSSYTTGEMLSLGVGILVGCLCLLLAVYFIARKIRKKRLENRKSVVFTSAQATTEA
Description for Carbonic anhydrase 12: Inhibition of human carbonic anhydrase 12 by stopped-flow CO2 hydration assay
Description for Carbonic anhydrase 2: Inhibition of human carbonic anhydrase 2 by stopped-flow CO2 hydration assay
Description for Carbonic anhydrase 9: Inhibition of human carbonic anhydrase 9 by stopped-flow CO2 hydration assay

For `CC(=O)OC[C@H]1O[C@@H](n2cc(-c3ccc(S(N)(=O)=O)cc3)nn2)[C@H](OC(C)=O)[C@@H](OC(C)=O)[C@H]1OC(C)=O`, the Ki on Carbonic anhydrase 12 was 9.7 nM; at Carbonic anhydrase 14, 15.8 nM.
On to `CCC(=O)OC[C@H]1O[C@@H](n2cc(-c3ccc(S(N)(=O)=O)cc3)nn2)[C@H](OC(=O)CC)[C@@H](OC(=O)CC)[C@H]1OC(=O)CC`, for which the inhibition constant Ki on Carbonic anhydrase 12 came to 5.4 nM; at Carbonic anhydrase 9, 5.1 nM; on Carbonic anhydrase 14, 10.9 nM; on Carbonic anhydrase 2 it was 8.1 nM; on Carbonic anhydrase 1 it was 78.8 nM.
With `NS(=O)(=O)c1ccc(-c2cn([C@@H]3O[C@H](CO)[C@@H](O)[C@H](O)[C@H]3O)nn2)cc1`, the figures for the Ki on Carbonic anhydrase 12 and at Carbonic anhydrase 14 were 40.1 nM and 50.3 nM, respectively. Moreover, the microsomal CLint at 1 µM in [1] and in data set [2] was < 7 µL/min/mg throughout. For the same compound, in [3], the half-life at 5000 ng/mL was > 250 min. This compound also registered an Activity on Albumin of 13%. Moreover, in data set [4], the recovery at 1.5 h, 20 µM was 100%.
Regarding `CC(=O)OC[C@H]1O[C@@H](n2cc(-c3cccc(S(N)(=O)=O)c3)nn2)[C@H](OC(C)=O)[C@@H](OC(C)=O)[C@H]1OC(C)=O`, the Ki on Carbonic anhydrase 9 came to 943 nM.
Same read-out and setting: in the case of `CC(C)CC(=O)OC[C@H]1O[C@@H](n2cc(-c3cccc(S(N)(=O)=O)c3)nn2)[C@H](OC(=O)CC(C)C)[C@@H](OC(=O)CC(C)C)[C@@H]1OC(=O)CC(C)C` it was 724 nM.
For the compound `CCCCC(=O)OC[C@H]1O[C@@H](n2cc(-c3ccc(S(N)(=O)=O)cc3)nn2)[C@H](OC(=O)CCCC)[C@@H](OC(=O)CCCC)[C@H]1OC(=O)CCCC`, the inhibitory constant (Ki) on Carbonic anhydrase 12 came to 31 nM; at Carbonic anhydrase 14 it was 67.3 nM; at Carbonic anhydrase 2, 73.6 nM; on Carbonic anhydrase 1, 2130 nM.
As for `CCCCC(=O)OC[C@H]1O[C@@H](n2cc(-c3ccc(S(N)(=O)=O)cc3)nn2)[C@H](OC(=O)CCCC)[C@@H](OC(=O)CCCC)[C@@H]1OC(=O)CCCC`, the solubility entry in data set [5] was “Insoluble”. In addition, the Ki on Carbonic anhydrase 12 was determined as 52.7 nM; on Carbonic anhydrase 14 it was 176 nM; at Carbonic anhydrase 2, 573 nM; on Carbonic anhydrase 1, 9230 nM. Moreover, the microsomal CLint at 1 µM in [1] and in data set [2] was < 7 µL/min/mg each time. Besides, the half-life at 5000 ng/mL in data set [3] is > 250 min. On Albumin, the Activity is > 99%.
With `CC(C)CC(=O)OC[C@H]1O[C@@H](n2cc(-c3ccc(S(N)(=O)=O)cc3)nn2)[C@H](OC(=O)CC(C)C)[C@@H](OC(=O)CC(C)C)[C@@H]1OC(=O)CC(C)C`, the solubility result in data set [5] is “Insoluble”. In addition, the Ki at Carbonic anhydrase 12 was 52 nM; on Carbonic anhydrase 9, 426 nM; at Carbonic anhydrase 14 it was 40.1 nM; at Carbonic anhydrase 2, 440 nM; on Carbonic anhydrase 1 it was 9440 nM. For the same compound, the microsomal CLint at 1 µM in [1] and in [2] was < 7 µL/min/mg each time. Also, the half-life at 5000 ng/mL in data set [3] is > 250 min. The Activity at Albumin is > 99%.
Compound `CC(=O)OC[C@H]1O[C@@H](n2cc(-c3cccc(S(N)(=O)=O)c3)nn2)[C@H](OC(C)=O)[C@@H](OC(C)=O)[C@@H]1OC(C)=O` yielded a Ki at Carbonic anhydrase 9 of 480 nM.
Turning to `C#Cc1cccc(S(N)(=O)=O)c1`, the Ki on Carbonic anhydrase 9 came out at 65.7 nM.
Consider `CCC(=O)OC[C@H]1O[C@@H](n2cc(-c3cccc(S(N)(=O)=O)c3)nn2)[C@H](OC(=O)CC)[C@@H](OC(=O)CC)[C@H]1OC(=O)CC`, for which, on Carbonic anhydrase 9, the affinity corresponds to a Ki of 126 nM.
Regarding `CC(C)CC(=O)OC[C@H]1O[C@@H](n2cc(-c3ccc(S(N)(=O)=O)cc3)nn2)[C@H](OC(=O)CC(C)C)[C@@H](OC(=O)CC(C)C)[C@H]1OC(=O)CC(C)C`, the inhibition constant (Ki) on Carbonic anhydrase 12 is 23.3 nM; on Carbonic anhydrase 9, 374 nM; at Carbonic anhydrase 14 it was 15.9 nM; at Carbonic anhydrase 2, 37.9 nM; on Carbonic anhydrase 1, 3210 nM.
At Carbonic anhydrase 9, `CCCC(=O)OC[C@H]1O[C@@H](n2cc(-c3cccc(S(N)(=O)=O)c3)nn2)[C@H](OC(=O)CCC)[C@@H](OC(=O)CCC)[C@H]1OC(=O)CCC` gave an inhibition constant (Ki) of 69.2 nM.
Turning to `CCCC(=O)OC[C@H]1O[C@@H](n2cc(-c3ccc(S(N)(=O)=O)cc3)nn2)[C@H](OC(=O)CCC)[C@@H](OC(=O)CCC)[C@H]1OC(=O)CCC`, the Ki at Carbonic anhydrase 12 came to 9.5 nM; on Carbonic anhydrase 14 it was 35.6 nM; on Carbonic anhydrase 2, 6.9 nM; on Carbonic anhydrase 1, 257 nM.
Consider `CC(=O)OC[C@H]1O[C@@H](n2cc(-c3ccc(S(N)(=O)=O)cc3)nn2)[C@H](OC(C)=O)[C@@H](OC(C)=O)[C@@H]1OC(C)=O`, for which the inhibitory constant (Ki) on Carbonic anhydrase 12 amounted to 67.1 nM; on Carbonic anhydrase 14 it was 104 nM. Moreover, the half-life at 5000 ng/mL in [3] is 7 min. The compound also came in with an Activity on Albumin of 30%. Besides, the recovery at 1.5 h, 15 µM in data set [6] is 81%.
With `NS(=O)(=O)c1ccc(-c2cn([C@@H]3O[C@H](CO)[C@H](O)[C@H](O)[C@H]3O)nn2)cc1`, the Ki worked out at 36.3 nM at Carbonic anhydrase 12; 126 nM on Carbonic anhydrase 9; 20.1 nM on Carbonic anhydrase 14; 6.7 nM on Carbonic anhydrase 2; 7950 nM on Carbonic anhydrase 1.
Regarding `CCCC(=O)OC[C@H]1O[C@@H](n2cc(-c3ccc(S(N)(=O)=O)cc3)nn2)[C@H](OC(=O)CCC)[C@@H](OC(=O)CCC)[C@@H]1OC(=O)CCC`, the solubility entry in data set [5] was “Insoluble”. Moreover, the Ki came out at 50.2 nM on Carbonic anhydrase 12; 633 nM at Carbonic anhydrase 9; 119 nM on Carbonic anhydrase 14; 76.3 nM at Carbonic anhydrase 2; 1800 nM at Carbonic anhydrase 1. In [3], this compound yielded a half-life at 5000 ng/mL of 25 min. On Albumin, this compound gave an Activity of 94%.
As for `NS(=O)(=O)c1cccc(-c2cn([C@@H]3O[C@H](CO)[C@H](O)[C@H](O)[C@H]3O)nn2)c1`, the inhibitory constant (Ki) on Carbonic anhydrase 9 was found to be 590 nM.
`C#Cc1ccc(S(N)(=O)=O)cc1` showed an inhibition constant Ki at Carbonic anhydrase 9 of 54 nM.
On Carbonic anhydrase 9, `CCCC(=O)OC[C@H]1O[C@@H](n2cc(-c3cccc(S(N)(=O)=O)c3)nn2)[C@H](OC(=O)CCC)[C@@H](OC(=O)CCC)[C@@H]1OC(=O)CCC` yielded a Ki of 583 nM.
Compound `CCCCC(=O)OC[C@H]1O[C@@H](n2cc(-c3cccc(S(N)(=O)=O)c3)nn2)[C@H](OC(=O)CCCC)[C@@H](OC(=O)CCCC)[C@H]1OC(=O)CCCC` displayed a Ki on Carbonic anhydrase 9 of 800 nM.
Still for that read-out and setting: the same measure for `CCC(=O)OC[C@H]1O[C@@H](n2cc(-c3cccc(S(N)(=O)=O)c3)nn2)[C@H](OC(=O)CC)[C@@H](OC(=O)CC)[C@@H]1OC(=O)CC`: 874 nM.
Compound `CCCCC(=O)OC[C@H]1O[C@@H](n2cc(-c3cccc(S(N)(=O)=O)c3)nn2)[C@H](OC(=O)CCCC)[C@@H](OC(=O)CCCC)[C@@H]1OC(=O)CCCC` displayed a Ki at Carbonic anhydrase 9 of 402 nM.
As to `CC(C)CC(=O)OC[C@H]1O[C@@H](n2cc(-c3cccc(S(N)(=O)=O)c3)nn2)[C@H](OC(=O)CC(C)C)[C@@H](OC(=O)CC(C)C)[C@H]1OC(=O)CC(C)C`, on Carbonic anhydrase 9, the Ki is 254 nM.
In the case of `CCC(=O)OC[C@H]1O[C@@H](n2cc(-c3ccc(S(N)(=O)=O)cc3)nn2)[C@H](OC(=O)CC)[C@@H](OC(=O)CC)[C@@H]1OC(=O)CC`, the inhibition constant Ki on Carbonic anhydrase 12 is 7.4 nM; at Carbonic anhydrase 9, 475 nM; at Carbonic anhydrase 14, 256 nM; on Carbonic anhydrase 2 it was 71.1 nM; on Carbonic anhydrase 1, 2020 nM. In data set [3], the half-life at 5000 ng/mL was determined as 3 min. For the same compound, in data set [7], the recovery at 1.5 h, 8 µM worked out at 47%. Further, the Activity at Albumin turned out to be 77%.
